Here are results for two compounds from patent US20240327372A1, “PREPARATION OF PHENE[…] […] STEREOISOMERS THEREOF AND PRECURSORS THEREOF” (priority 2022, published 2024).

Assay [1] has as its system NET. The assay is described as follows: [3H]Norepinephrine uptake inhibition in rat brain synaptosomes. In kind it is biochemical. As to conditions: NE. Here is the method:
Materials used were: Neurotransmitters [3H]5-HT (PerkinElmer, NET498001MC) [^3H]Dopamine (PerkinElmer, NET673250UC) [^3H]Norepinephrine (PerkinElmer, NET377250UC); Test Compounds Racemic methylone HCl (Merck, M-140); (R)-methylone HCl (Pisgah Labs); (S)-methylone HCl (Pisgah Labs); Reference Compounds Citalopram (Tocris Bioscience 1427). JHW007 (Tocris Bioscience 4351). Nomifensine (Abcam ab146004).
Synaptosomes were prepared from Sprague Dawley (200-250 g) rat brain regions (hippocampus for NE, striatum for DA and midbrain for 5-HT) using standard protocols. Tissues were dissected, added to sucrose buffer (0.32 M), homogenized with a dounce-homogenizer and centrifuged at 100×g to remove cells and debris. Supernatant was collected and centrifuged 17,000×g for 10 minutes at 4° C. to pellet the synaptosomes. The pellet was resuspended in fresh assay buffer.
Uptake assays were carried out in 96-well plates in a final volume of 250 μL per well. To each well was added 150 μL synaptosomes, 50 μL test, non-specific compound or buffer alone. The plate was incubated at 30° C. for 30 minutes with gentle agitation. 50 μL radiolabeled neurotransmitter in buffer was then added to each well to initiate the uptake. The plate was incubated at 30° C. for a further 5 minutes with gentle agitation. The incubation was stopped by vacuum filtration onto presoaked GF/C filters using a 96-well FilterMate™ harvester, followed by 3 washes with ice-cold wash buffer. Filters were then dried under a warm air stream, sealed in polyethylene, scintillation cocktail added, and the radioactivity counted in a Wallac® TriLux 1450 MicroBeta counter.
For each concentration of drug, non-specific uptake was subtracted from total uptake to give specific uptake. Data was fitted using the non-linear curve fitting routines in Prism® (Graphpad Software Inc) to determine IC50.

Assay [2] has as its system NET. As to the kind of experiment: NE release study. It counts as biochemical.
In the next assay the target is hNav1.5 (Homo sapiens (Human), UniProt Q14524). As to the kind of experiment: hNav1.5 Sodium Channel Assay (peak), Qube APC. It counts as cell-based. As to conditions: Nav1.5, Antagonist mode, test compound. As to the method:
(§1) Where presented, IC50 values were determined by a non-linear, least squares regression analysis.
(§2) Recombinant HEK-293 cells stably transfected with human Nav1.5 cDNA, recombinant HEK293 cell line expressing the human Cav1.2 (L-type voltage gated calcium channel, hCav1.2 α1C/β2a/α2δ1, and recombinant CHO-K1 cells stably transfected with human hERG cDNA were used separately in each of these assays.
hNav1.5 Sodium Channel Assay—Qube APC Onset and steady state block of peak Nav1.5 current is measured using a pulse pattern, repeated every 5 sec, consisting of a hyperpolarizing pulse to −120 mV for a 200 ms duration, depolarization to −15 mV amplitude for a 40 ms duration, followed by step to 40 mV for 200 ms and finally a 100 ms ramp (1.2 V/s) to a holding potential of −80 mV. Peak current is measured during the step to −15 mV.

For another assay, the target named is hKv4.3/hKChIP2 (Homo sapiens (Human), UniProt Q9UK17). The assay is described as follows: hKv4.3/hKChIP2 Potassium Channel Assay, Qube APC. It counts as cell-based. The conditions noted are these: Kc4.3/ChIP2, Antagonist mode, test compound. As to the method:
(§3) Electrophysiological assays were conducted to profile three compounds ((R)-methylone, (S)-methylone, or racemic methylone) for activities on the ion channel targets specified below using the Qube electrophysiological platform. Where presented, IC50 values were determined by a non-linear, least squares regression analysis. Reference standards were run as an integral part of each assay to ensure the validity of the results obtained.
(§4) Ion Channels tested were Eurofins Panel Part Number: CPROFullQB2DR Voltage-Gated Sodium: HEK-Nav1.5 (Peak), HEK-Nav1.5 (Late, Antagonist) Voltage-Gated Potassium: HEK-Kv4.3/KChIP2, CHO-hERG, CHO-KCNQ1/minK Voltage-Gated Calcium: HEK-Cav1.2 Inward-Rectifying Voltage-Gated Potassium: HEK-Kir2.1.
hKv4.3/hKChIP2 Potassium Channel Assay—Qube APC After whole cell configuration is achieved, the cells are held at −80 mV. Onset and steady state block of hKv4.3 current is measured using a pulse pattern from −80 mV to 40 mV amplitude for a 110 ms duration, and finally a 100 ms ramp (1.2 V/s) to −80 mV. This paradigm is delivered once every 5 s to monitor the current amplitude.

The target of a further assay is hCav1.2 (Homo sapiens (Human), UniProt Q13936). As to the kind of experiment: hCav1.2 (L-type) Calcium Channel Assay, Qube APC. It counts as cell-based. As to conditions: Cav1.2, Antagonist mode, test compound. Here is the method:
as §1, §2
hCav1.2 (L-type) Calcium Channel Assay—Qube APC After whole cell configuration is achieved, the cells are held at −90 mV. Cav1.2 currents are evoked by a 50 ms pulse to −100 mV followed by a 200 ms pulse to +20 mV before returning to the holding potential of −90 mV. This paradigm is delivered three times every 60 s to monitor the current amplitude.

Another assay concerns the target hNav1.5 Late Current (Homo sapiens (Human), UniProt Q14524). As to the kind of experiment: hNav1.5 Late Current Sodium Channel Assay, Qube APC. In kind it is cell-based. As to conditions: Nav1.5 Late Current, Antagonist mode, test compound. As to the method: as §3, §4
hNav1.5 Late Current Sodium Channel Assay—Qube APC Onset and steady state block of Late Nav1.5 current is measured using a pulse pattern, repeated every 5 sec, consisting of a hyperpolarizing pulse to −120 mV for a 200 ms duration, depolarization to −15 mV amplitude for a 40 ms duration, followed by step to 40 mV for 200 ms and finally a 100 ms ramp (1.2 V/s) to a holding potential of −80 mV. Late current is measured as charge current elicited during the ramp with 50 nM ATXII.

The target of another assay is hKCNQ1/hminK (Homo sapiens (Human), UniProt P51787). The assay is described as follows: hKCNQ1/hminK Potassium Channel Assay, Qube APC. As to conditions: KCNQ1/mink, Antagonist mode, test compound. In kind it is cell-based. Here is the method:
as §3, §4
hKCNQ1/hminK Potassium Channel Assay—Qube APC After whole cell configuration is achieved, the cells are held at −80 mV. KCNQ1/minK currents are evoked by a 1000 ms pulse from −80 mV to 60 mV followed by a ramp from 60 mV to −80 mV over 115 ms with the outward peak currents measured upon depolarization of the cell membrane. This paradigm is delivered once every 15 s to monitor the current amplitude.

hCav1.2, sequence (Q13936 whole entry, looked up): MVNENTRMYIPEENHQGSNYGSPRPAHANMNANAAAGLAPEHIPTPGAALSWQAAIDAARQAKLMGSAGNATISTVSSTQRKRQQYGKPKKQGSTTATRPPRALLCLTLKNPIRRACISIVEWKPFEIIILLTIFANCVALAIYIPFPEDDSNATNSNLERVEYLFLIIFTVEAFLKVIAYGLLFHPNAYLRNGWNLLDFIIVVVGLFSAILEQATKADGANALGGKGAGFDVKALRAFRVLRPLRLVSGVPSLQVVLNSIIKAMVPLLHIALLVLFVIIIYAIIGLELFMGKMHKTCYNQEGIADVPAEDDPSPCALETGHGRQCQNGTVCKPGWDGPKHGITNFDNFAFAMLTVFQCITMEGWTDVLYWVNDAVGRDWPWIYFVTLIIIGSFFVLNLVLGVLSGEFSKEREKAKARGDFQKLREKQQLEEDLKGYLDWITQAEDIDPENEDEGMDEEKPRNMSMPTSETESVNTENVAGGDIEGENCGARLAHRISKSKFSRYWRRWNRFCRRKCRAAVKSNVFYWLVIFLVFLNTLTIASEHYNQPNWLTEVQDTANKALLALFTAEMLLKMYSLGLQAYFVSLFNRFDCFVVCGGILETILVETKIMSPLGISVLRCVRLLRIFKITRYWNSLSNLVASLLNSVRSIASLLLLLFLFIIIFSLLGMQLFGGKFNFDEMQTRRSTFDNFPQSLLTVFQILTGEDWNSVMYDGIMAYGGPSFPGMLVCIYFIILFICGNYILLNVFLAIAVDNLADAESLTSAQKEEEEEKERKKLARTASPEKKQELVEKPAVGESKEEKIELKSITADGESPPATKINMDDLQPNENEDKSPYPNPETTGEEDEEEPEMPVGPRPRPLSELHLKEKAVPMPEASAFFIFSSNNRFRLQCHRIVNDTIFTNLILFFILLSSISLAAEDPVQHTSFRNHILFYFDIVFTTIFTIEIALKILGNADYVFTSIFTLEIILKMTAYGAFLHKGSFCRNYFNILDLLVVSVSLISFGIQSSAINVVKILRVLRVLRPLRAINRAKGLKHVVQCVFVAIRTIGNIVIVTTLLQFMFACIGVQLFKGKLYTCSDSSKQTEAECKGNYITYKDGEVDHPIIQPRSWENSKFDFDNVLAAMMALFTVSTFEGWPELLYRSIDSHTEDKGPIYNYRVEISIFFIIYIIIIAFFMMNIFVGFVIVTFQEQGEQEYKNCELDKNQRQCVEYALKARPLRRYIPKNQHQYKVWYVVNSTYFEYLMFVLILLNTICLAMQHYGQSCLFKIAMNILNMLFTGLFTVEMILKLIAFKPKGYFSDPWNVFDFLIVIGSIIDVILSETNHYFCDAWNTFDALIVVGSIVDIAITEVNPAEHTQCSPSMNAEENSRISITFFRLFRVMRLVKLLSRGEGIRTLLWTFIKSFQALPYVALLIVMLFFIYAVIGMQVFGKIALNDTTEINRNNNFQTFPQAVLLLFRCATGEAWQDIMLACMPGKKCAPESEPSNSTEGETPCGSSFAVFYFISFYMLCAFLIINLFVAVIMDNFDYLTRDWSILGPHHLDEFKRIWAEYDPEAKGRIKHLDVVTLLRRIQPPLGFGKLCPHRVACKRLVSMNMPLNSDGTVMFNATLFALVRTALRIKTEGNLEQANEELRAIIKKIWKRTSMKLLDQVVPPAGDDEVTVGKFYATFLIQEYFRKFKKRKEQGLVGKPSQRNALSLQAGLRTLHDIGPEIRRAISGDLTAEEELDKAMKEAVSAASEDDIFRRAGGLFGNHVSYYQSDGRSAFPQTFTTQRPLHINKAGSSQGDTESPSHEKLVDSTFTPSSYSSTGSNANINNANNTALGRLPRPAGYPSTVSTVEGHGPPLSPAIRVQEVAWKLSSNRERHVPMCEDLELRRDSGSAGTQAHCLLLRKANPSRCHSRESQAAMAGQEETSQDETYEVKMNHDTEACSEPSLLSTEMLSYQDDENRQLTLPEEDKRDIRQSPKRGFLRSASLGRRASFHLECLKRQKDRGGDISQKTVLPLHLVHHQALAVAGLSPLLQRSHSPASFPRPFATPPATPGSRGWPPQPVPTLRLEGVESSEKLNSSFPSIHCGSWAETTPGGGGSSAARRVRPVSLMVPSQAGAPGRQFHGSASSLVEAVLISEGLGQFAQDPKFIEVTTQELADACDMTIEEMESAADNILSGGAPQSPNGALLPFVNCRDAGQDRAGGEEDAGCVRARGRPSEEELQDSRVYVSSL
hCav1.2, sequence (Q08289 whole entry partner, looked up): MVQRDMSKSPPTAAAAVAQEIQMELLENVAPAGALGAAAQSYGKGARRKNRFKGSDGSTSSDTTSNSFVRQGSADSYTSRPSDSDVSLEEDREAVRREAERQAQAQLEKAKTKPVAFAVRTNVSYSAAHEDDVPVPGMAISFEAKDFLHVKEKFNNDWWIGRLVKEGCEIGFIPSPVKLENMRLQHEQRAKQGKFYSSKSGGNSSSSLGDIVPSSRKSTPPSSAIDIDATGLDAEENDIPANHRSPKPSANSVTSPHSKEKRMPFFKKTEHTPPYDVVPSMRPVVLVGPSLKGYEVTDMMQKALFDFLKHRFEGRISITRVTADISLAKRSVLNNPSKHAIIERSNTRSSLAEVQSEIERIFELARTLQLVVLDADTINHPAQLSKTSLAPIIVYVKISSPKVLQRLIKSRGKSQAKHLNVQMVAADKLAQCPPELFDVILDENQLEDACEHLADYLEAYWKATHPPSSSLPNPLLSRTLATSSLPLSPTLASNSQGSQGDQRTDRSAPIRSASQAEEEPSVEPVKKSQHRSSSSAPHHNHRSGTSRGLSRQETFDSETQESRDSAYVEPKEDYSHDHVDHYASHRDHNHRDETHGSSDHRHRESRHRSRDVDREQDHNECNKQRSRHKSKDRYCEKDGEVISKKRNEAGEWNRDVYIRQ
hCav1.2, sequence (P54289 whole entry partner, looked up): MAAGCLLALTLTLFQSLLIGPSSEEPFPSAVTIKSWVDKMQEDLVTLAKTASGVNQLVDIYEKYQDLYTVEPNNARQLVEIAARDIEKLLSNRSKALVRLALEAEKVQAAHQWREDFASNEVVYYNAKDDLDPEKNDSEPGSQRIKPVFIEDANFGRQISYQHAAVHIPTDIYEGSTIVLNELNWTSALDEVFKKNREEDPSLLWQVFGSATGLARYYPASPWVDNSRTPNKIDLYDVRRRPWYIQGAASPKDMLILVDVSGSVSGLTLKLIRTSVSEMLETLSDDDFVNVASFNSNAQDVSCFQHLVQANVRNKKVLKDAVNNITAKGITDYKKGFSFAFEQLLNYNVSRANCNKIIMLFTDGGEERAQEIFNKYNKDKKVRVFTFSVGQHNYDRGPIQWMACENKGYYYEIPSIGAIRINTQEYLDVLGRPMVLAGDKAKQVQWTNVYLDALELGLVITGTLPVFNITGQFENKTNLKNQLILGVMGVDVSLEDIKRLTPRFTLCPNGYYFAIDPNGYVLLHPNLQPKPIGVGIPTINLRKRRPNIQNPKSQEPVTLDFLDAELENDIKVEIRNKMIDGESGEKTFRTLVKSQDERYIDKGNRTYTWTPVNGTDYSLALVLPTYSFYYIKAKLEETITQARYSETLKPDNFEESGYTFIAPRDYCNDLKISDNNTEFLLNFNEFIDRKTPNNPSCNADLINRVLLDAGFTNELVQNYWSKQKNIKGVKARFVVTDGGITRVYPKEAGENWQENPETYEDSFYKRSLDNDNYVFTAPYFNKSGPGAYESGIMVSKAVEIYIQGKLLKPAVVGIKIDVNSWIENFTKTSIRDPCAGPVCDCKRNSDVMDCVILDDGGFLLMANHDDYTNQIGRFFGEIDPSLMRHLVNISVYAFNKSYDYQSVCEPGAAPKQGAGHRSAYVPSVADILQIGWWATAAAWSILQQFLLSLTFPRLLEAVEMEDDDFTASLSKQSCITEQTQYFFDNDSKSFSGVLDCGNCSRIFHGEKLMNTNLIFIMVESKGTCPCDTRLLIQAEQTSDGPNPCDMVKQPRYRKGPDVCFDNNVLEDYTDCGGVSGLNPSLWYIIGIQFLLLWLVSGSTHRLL
hCav1.2, sequence (P54289 whole entry partner, looked up): as above

For orientation: IC50 means the point on the concentration scale where inhibition reaches its midpoint. A word on the EC50: it is the midpoint of the concentration-response curve. A lower EC50 goes with an effect from little substance. Take `CN[C@@H](C)C(=O)c1ccc2c(c1)OCO2` [(S)-methylone]: in the assay with NET [1], the IC50 came out at 316 nM. Also, the EC50 in the assay on NET [2] came to 760 nM. Besides, the “Estimated IC50” value on hNav1.5, at hKv4.3/hKChIP2, on hCav1.2, at hNav1.5 Late Current and on hKCNQ1/hminK was “N/C (N/C indicates observed mean inhibition was <25%)” throughout.
For the compound `CN[C@H](C)C(=O)c1ccc2c(c1)OCO2` [(R)-methylone], the concentration for half-maximal inhibition (IC50) in the assay on NET [1] amounted to 242 nM. In the assay with NET [2], this compound returned a half-maximal effective concentration (EC50) of 191 nM. Also, the “Estimated IC50” value at hNav1.5, at hKv4.3/hKChIP2, at hCav1.2, at hNav1.5 Late Current and at hKCNQ1/hminK was “N/C (N/C indicates observed mean inhibition was <25%)” in each case.
